From patent US20260083725A1, “SIGMARI LIGAND FOR THE TREATMENT OF PANCREATIC CANCER” (INSTITUT NATIONAL DE LA SANTÉ ET DE LA RECHERCHE MÉDICALE, priority 2022, published 2026)

Tests used:
KICpdx1 mice = experiment: Endogenous PDAC mice model (KICpdx1 mice) treated with 1(S) ligand; assay type: in vivo, mouse; details: for median survival: once a week, non-treated 67 days
Procedure: Pdx1-Cre, Ink4afl/fl LSL-KrasG12D (KICpdx1) mice were obtained by crossing of the following strains: Pdx1-Cre, Ink4afl/fl, and LSL-KrasG12D mice provided by D. Melton (Harvard Stem Cell Institute, Cambridge, Massachusetts, USA), R. Depinho (Dana-Farber Cancer Institute, Boston, Massachusetts, USA), and T. Jacks (David H. Koch Institute for Integrative Cancer Research, Cambridge, Massachusetts, USA), respectively. PDAC-bearing 5- and 8-week-old mice were treated once a week with vehicle or 1(S) ligand (0.1 mg/injection/mouse) until experimental endpoint mice reaching sacrificing time or mice reaching physiological endpoints (cachexia criteria, limited movement, drinking or feeding of the mice). No exclusion has to be reported in all experiments as no mice reached a criteria of exclusion such as a fight-related wound or the development of ear inflammation.. To study final tumor volume, mice were euthanized at 9 weeks and tumors were weighted and fixed in 4% (wt/vol) formaldehyde for immunochemistry. For survival analyses, mice were euthanized when they developed ethical clinical end points defined by our institutional guidelines and European animal protection law. For all experiments, sample size was predicted following a Mann-Whitney statistical approach involving power calculation of 0.8 with a FDR of 0.05. A minimum number of 7 mice per group was predicted as able to reach significance. Bonferroni post-hoc test was used for multiples test comparison (two variance with time and/or treatment). Experimental technicians were proceeding with injections while personnel related to mice follow-up worked in a blinded approach. All animal care and experimental procedures were performed in agreement with the Animal Ethics Committee of Marseille then the French ministry of research and innovation under the reference Apafis#16998-2018100814458519.

SK2 channel = experiment: Whole cell patch clamp recording of SK2 current in pancreatic cancer cells; assay type: cell-based, human; details: for CAF-CM-induced SK2 current: PANC-1 cells incubated with CAF-CM plus inhibitor or antibody
Procedure: Electrophysiological recordings in HEK293-T, PANC-1 and MiaPaCa-2 cells were performed in the whole cell configuration of the patch clamp technique at room temperature. Cells were bathed in a solution containing: 5 mM KCl, 145 mM NaCl, 1 mM MgCl2, 2 mM CaCl2, and 10 mM Hepes (pH adjusted to 7.4 with HCl, 300 mosm/L). Soft glass patch electrodes (Brand, Wertheim, Germany) were made on a horizontal pipette puller (P-97, Sutter Instrument Co., Novato, CA) to achieve a final resistance ranging from 3 to 5 MΩ. The internal solution was: 145 mM KCl, 1 mM MgCl2, 0.87 mM CaCl2, 1 mM EGTA, 10 mM Hepes, 1 mM ATP (pH adjusted to 7.2 with KOH, 308 mosm/L, pCa 6). Recordings were performed at room temperature in the voltage clamp mode using an PC-controlled EPC 9 patch-clamp amplifier (HEKA, Lambrecht/Pfalz, Germany). Currents were acquired and analyzed with Pulse and Pulsefit software (HEKA). Signal were filtered at 10 kHz and digitalized at 20 kHz. Currents were elicited by voltage ramps protocols (from −120 to +60 mV). Current density was measured at 0 mV. For the electrophysiological study of the SK2 mutations, HEK293-T were transfected with the different constructions and the HA-myr-AKT using calcium phosphate and recorded 24 h after transfection.

SK2/AKT interaction = experiment: In situ proximity ligation assay of SK2/AKT interaction in PANC-1 cells; assay type: cell-based, human; details: PANC-1 Sh RD cells, overnight CAF-CM + 1(S) ligand 1 μM; FIG. 1B
Procedure: The DuoLink in situ Proximity Ligation Assay (PLA) (Olink Bioscience, Uppsala, Sweden) was used to detect the interaction between SK2 and different candidates' partner (C-myc Sig-1R, EGFR, AKT, β1 integrin). PANC-1 cells expressing a stable Sh R D, Sh Sig-1R, or Sh SK2 were seeded on poly-Lysine (40 μg/mL) coated microscope slides. Cells were fixed with PFA 4% and permeabilized with triton X100 (0.05%). Cells were immunolabeled with primary antibodies: anti SK2 (1:100) and anti C-myc, (1:100) or anti EGFR (1:100), or anti AKT (1:100), or anti β1 integrin (1:100) for 1 h at 37° C. The secondary antibodies with attached PLA probes were supplied in the Duolink kit. Cellular PLA images were captured using an inverted Zeiss Axio Observer Z1 microscope (Zeiss, Jena, Germany). 6 to 10 fields have been imaged and quantified per conditions.

Panc-1 cells = experiment: Proliferation and viability assays on Panc-1 cells; assay type: cell-based; details: control Panc-1 cells or cells silenced for Sig1R or SK2
[1] = KICpdx1 mice treated from 5 weeks, end-point at 9 weeks, versus untreated

Compound | tumor progression (KICpdx1 mice; KICpdx1 mice treated from 5 weeks old, before the onset of PDAC) | median survival (KICpdx1 mice; KICpdx1 mice treated from 5 weeks old, 0.1 mg/injection/mouse, FIG. 1D) [days] | histological examination of pancreas (KICpdx1 mice; KICpdx1 mice treated from 5 weeks, end-point at 9 weeks) | ECM density (trichrome labelling, desmoplasia) (KICpdx1 mice; [1]) | number of EMT-reprogramming epithelial cells (Pan-CK/αSMA co-staining) (KICpdx1 mice; [1]) | reduction of pancreas weight compared to non-treated (KICpdx1 mice; KICpdx1 mice treated from 5 weeks, end-point at 9 weeks, FIG. 1F) [%] | pancreas weight (KICpdx1 mice; KICpdx1 mice treated from 5 weeks, end-point at 9 weeks, non-treated 1.44 g (±0.42), FIG. 1F) [g] | median survival (KICpdx1 mice; KICpdx1 mice treated from 8 weeks of age (PDAC already developed), FIG. 1H) [days] | metastasis onset (KICpdx1 mice; mouse models of PDAC treated with 1(S)) | CAF-CM mediated activation of SK2 (ISK2 current) (SK2 channel; PANC-1 cells exposed overnight to CAF-CM + 1(S) ligand 1 μM, patch-clamp, FIG. 1A) | association of SK2 and AKT (PLA, interactions per cell) (SK2/AKT interaction) | effect on proliferation and viability (Panc-1 cells) | CAF-CM-induced SK2 current (SK2 channel)
CN(CCCN1C(=O)[C@@H]2Cc3ccccc3CN2C1=O)Cc1ccccc1 [Compound 1(S)] | significantly delayed | 84 | almost lack of malignant lesions | lower | lower | 69 | 0.45 | 77 | reduced | abolished | prevented | does not exhibit any effect | 
CCN(CC)CCCCN1c2ccccc2Oc2ccc(Cl)cc21 [DEBC, reference compound] |  |  |  |  |  |  |  |  |  |  |  |  | suppressed
C#Cc1cccc(Nc2ncnc3cc(OCCOC)c(OCCOC)cc23)c1 [Erlotinib, reference compound] |  |  |  |  |  |  |  |  |  |  |  |  | suppressed
